Data reported in PubChem BioAssay AID651771 (Broad Institute, 2012).
“And” between values parts separate entries of the source, which are not always exact repeats. Identical values can stand only once. Inconclusive results are not listed.

Test system: SK-MEL-5 DCT mRNA qPCR, delta-delta-Ct, overnight
Assay: DCT transcript decrease in melanoma cells – cell-based, SK-MEL-5, RT-qPCR, dry powder samples, orthogonal assay for MITF inhibitor project, dose response (AID 651771)

Point of comparison: `O=C1C(Nc2ccccc2)=C(c2ccccc2)C(=O)c2ccccc21`, AC40 10.4 µM. Against it:
- CC(C)N1CCN(C2=C(Nc3ccc(F)cc3)C(=O)c3ccccc3C2=O)CC1 — 3.6-fold lower, 2.9 µM
- C=CCNC1=C(Cl)C(=O)c2ccccc2C1=O — 10-fold lower, 1 µM
- CN1CCN(C2=C(NS(=O)(=O)c3ccc(Br)s3)C(=O)c3ccccc3C2=O)CC1 — 6.2-fold lower, 1.68 µM
- O=C1C(Nc2ccc(Cl)cc2)=C(N2CCCC2)C(=O)c2ccccc21 — within 1.5-fold, 9.53 µM
- NC1=C(NS(=O)(=O)c2ccccc2)C(=O)c2ccccc2C1=O — 3.4-fold lower, 3.02 µM
- NC1=C(NC(=O)c2ccccc2)C(=O)c2ccccc2C1=O — 6-fold lower, 1.73 µM
- COc1ccc(NC2=C(N3CCCCC3)C(=O)c3ccccc3C2=O)cc1 — within 1.5-fold, 12.8 µM
- CCN1CCN(C2=C(NC(=O)c3ccccc3)C(=O)c3ccccc3C2=O)CC1 — 12-fold lower, 0.884 µM
- O=C1C=C(NS(=O)(=O)c2ccccc2)C(=O)c2ccccc21 — 2.6-fold lower, 4.06 µM
- NS(=O)(=O)c1ccc(NC2=CC(=O)c3ccccc3C2=O)cc1 — 190-fold lower, 0.0555 µM
- O=C1C=C(Nc2ccc([N+](=O)[O-])c(C(F)(F)F)c2)C(=O)c2ccccc21 — 9.9-fold lower, 1.05 µM
- NC1=CC(=O)c2ccccc2C1=O — 11-fold lower, 0.966 µM
- O=C(NC1=C(Cl)C(=O)c2ccccc2C1=O)c1ccccc1 — 31-fold lower, 0.336 µM
- NC1=C(NS(=O)(=O)c2cccs2)C(=O)c2ccccc2C1=O — 5.2-fold lower, 2.01 µM
- O=C1C=C(NS(=O)(=O)c2ccc(Br)cc2)C(=O)c2ccccc21 — within 1.5-fold, 7.25 µM
- O=C1C(Nc2ccc(Br)cc2)=C(N2CCCCC2)C(=O)c2ccccc21 — within 1.5-fold, 12.6 µM
- CCN1CCN(C2=C(Nc3ccc(F)cc3F)C(=O)c3ccccc3C2=O)CC1 — 2.2-fold lower, 4.78 µM
- COC1=C(NS(=O)(=O)c2ccc(Br)cc2)C(=O)c2ccccc2C1=O — within 1.5-fold, 8.65 µM
- Cc1ccc(NC2=CC(=O)c3ccccc3C2=O)cc1 — 38-fold lower, 0.277 µM
- COC1=C(Nc2ccccc2)C(=O)c2ccccc2C1=O — 12-fold lower, 0.838 µM
- CC(C)N1CCN(C2=C(Nc3ccc(F)cc3F)C(=O)c3ccccc3C2=O)CC1 — 2.8-fold lower, 3.67 µM
- NC1=C(NS(=O)(=O)c2ccc(Br)cc2)C(=O)c2ccccc2C1=O — within 1.5-fold, 12.8 µM
- Cc1nc2ccccc2n1/N=C/c1ccc([N+](=O)[O-])s1 — 6.8-fold lower, 1.54 µM
- COC1=C(NS(=O)(=O)c2cccs2)C(=O)c2ccccc2C1=O — within 1.5-fold, 9.01 µM
- CCN1CCN(C2=C(NS(=O)(=O)c3ccc(Br)cc3)C(=O)c3ccccc3C2=O)CC1 — 3.1-fold lower, 3.38 µM
- O=C1C=C(NS(=O)(=O)c2cccs2)C(=O)c2ccccc21 — 2.2-fold lower, 4.64 µM

In the case of `O=C1C=C(Nc2ccccc2)C(=O)c2ccccc21`, the AC40 is reported as 0.302 µM and 0.325 µM.
